Measurements reported in patent publication US20110233810A1, “ANTIMICROBIAL PLASTIC COMPOSITIONS AND METHODS FOR PREPARING SAME” (W. M. Barr & Company, priority 2010, published 2011).

Legend:
Rat = conditions: cited from earlier work
Rabbit = conditions: cited from earlier work
[1] = heavy gauge vinyl pool liner and film of vinyl baby pants; cited from earlier work
[2] = monomeric form; cited from earlier work
Staphylococcus aureus = assay: Zone of Inhibition testing AATCC-147 (modified), pellets in agar; assay type: cell-based; conditions: text summary of Table VIII
Experimental: A set of AETs run measured Zone of Inhibition, ZOI (AATCC-147) and pellets from runs 1 to 5 were used. Pellets were placed in an agar growth medium that had been streaked with parallel lines of Staphylococcus aureus and incubated for 24 hours at 37° C. The final plates were photographed and measured for length of ZOI in mm.

SMILES: c1ccc2c(c1)Oc1ccccc1[As]2O[As]1c2ccccc2Oc2ccccc21 [OBPA, 10,10′-oxybisphenoxarsine]
- Oral LD50 (Rat): 37 mg/kg
- Dermal LD50 (Rabbit): 121 mg/kg
- Leaching from plastics [1]: leaches very slowly

SMILES: CCCCCCCCCCCCCCCCCC[N+](C)(C)CCC[Si](OC)(OC)OC.[Cl-] [Ref #1, 3-(trimethoxysilyl) propyl-N-octadecyl-N,N-dimethyl ammonium chloride]
- Vapor pressure [2]: 5.8 × 10^−14 mmHg

SMILES: Oc1cc(Cl)ccc1Oc1ccc(Cl)cc1Cl [TRICLOSAN, 2,4,4′-trichloro-2′-hydroxy diphenol ether]
- ZOI (in words) (Staphylococcus aureus): significant ZOI
